Measurements: patent US10870647B2, “Imidazopyridine derivative, method for preparing same, and pharmaceutical composition containing same as active ingredient for preventing or treating cancer” (DAEGU-GYEONGBUK MEDICAL INNOVATION FOUNDATION, priority 2016, dated 2020)

Columns and labels:
Test in all cases: Kinase selectivity, scanMAX Kinase assay panel (DiscoverX), % control at 1 uM
Type in all cases: binding
[1] = biological target: T1, scanMAX Kinase assay panel (Homo sapiens, UniProt Q9Y2H9); details: MAST1; 1 uM; read-out: Percent Control (%)
T1 construct: purchased DiscoverX
Outline: (§1)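 Activity was called for kinases showing % control under 35, calculated from compound signal relative to positive and negative controls. Each compound screened at 1 uM against the DiscoverX scanMAX panel.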

[2] = biological target: T2, scanMAX Kinase assay panel (Homo sapiens, UniProt P49137); details: MAPKAPK2; 1 uM; read-out: Percent Control (%)
T2 construct: purchased DiscoverX
Outline: as §1

[3] = biological target: T3, scanMAX Kinase assay panel (Homo sapiens, UniProt Q5VT25); details: MRCKA; 1 uM; read-out: Percent Control (%)
T3 construct: purchased DiscoverX
Outline: as §1

[4] = biological target: T4, scanMAX Kinase assay panel (Homo sapiens, UniProt P11362); details: FGFR1; 1 uM; read-out: Percent Control (%)
T4 construct: purchased DiscoverX
Outline: as §1

[5] = biological target: T5, scanMAX Kinase assay panel (Homo sapiens, UniProt O15146); details: MUSK; 1 uM; read-out: Percent Control (%)
T5 construct: purchased DiscoverX
T5 sequence (O15146 24-869): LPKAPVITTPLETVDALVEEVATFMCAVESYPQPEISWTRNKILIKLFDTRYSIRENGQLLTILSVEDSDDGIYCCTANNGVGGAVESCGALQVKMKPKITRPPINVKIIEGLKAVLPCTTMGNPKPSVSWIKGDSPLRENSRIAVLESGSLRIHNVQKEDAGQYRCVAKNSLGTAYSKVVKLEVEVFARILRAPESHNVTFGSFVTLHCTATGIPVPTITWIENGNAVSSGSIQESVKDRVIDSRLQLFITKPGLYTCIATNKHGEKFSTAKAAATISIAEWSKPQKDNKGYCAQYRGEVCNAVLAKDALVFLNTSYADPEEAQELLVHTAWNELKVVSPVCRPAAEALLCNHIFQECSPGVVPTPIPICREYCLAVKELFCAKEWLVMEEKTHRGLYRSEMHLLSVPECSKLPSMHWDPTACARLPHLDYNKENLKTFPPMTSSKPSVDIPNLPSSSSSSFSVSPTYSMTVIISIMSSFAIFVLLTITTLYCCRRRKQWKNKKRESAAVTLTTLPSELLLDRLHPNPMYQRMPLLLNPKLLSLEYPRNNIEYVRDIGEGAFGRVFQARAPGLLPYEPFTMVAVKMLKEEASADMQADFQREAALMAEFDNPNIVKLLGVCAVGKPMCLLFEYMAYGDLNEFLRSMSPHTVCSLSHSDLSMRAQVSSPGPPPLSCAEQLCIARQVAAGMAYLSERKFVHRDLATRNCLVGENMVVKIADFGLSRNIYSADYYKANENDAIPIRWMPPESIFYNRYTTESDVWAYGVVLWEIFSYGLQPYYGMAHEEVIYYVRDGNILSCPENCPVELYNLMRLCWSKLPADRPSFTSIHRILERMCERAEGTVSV
Outline: as §1

[6] = biological target: T6, scanMAX Kinase assay panel (Homo sapiens, UniProt P78356); details: PIP5K2B; 1 uM; read-out: Percent Control (%)
T6 construct: purchased DiscoverX
T6 sequence (P78356 1-416): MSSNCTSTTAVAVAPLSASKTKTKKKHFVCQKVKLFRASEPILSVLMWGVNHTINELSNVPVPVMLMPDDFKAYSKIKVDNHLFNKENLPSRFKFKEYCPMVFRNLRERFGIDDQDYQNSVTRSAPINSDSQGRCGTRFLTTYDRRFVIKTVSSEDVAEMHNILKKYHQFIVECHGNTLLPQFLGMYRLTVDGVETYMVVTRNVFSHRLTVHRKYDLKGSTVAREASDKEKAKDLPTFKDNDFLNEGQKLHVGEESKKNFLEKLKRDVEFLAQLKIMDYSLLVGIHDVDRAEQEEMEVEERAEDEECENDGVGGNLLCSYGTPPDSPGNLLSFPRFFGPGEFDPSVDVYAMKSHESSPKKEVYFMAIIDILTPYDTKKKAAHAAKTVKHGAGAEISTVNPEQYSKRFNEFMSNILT
Outline: as §1

[7] = biological target: T7, scanMAX Kinase assay panel (Homo sapiens, UniProt Q9UEW8); details: STK39; 1 uM; read-out: Percent Control (%)
T7 construct: purchased DiscoverX
Outline: as §1

[8] = biological target: T8, scanMAX Kinase assay panel (Homo sapiens, UniProt P30530); details: AXL; 1 uM; read-out: Percent Control (%)
T8 construct: purchased DiscoverX
T8 sequence (P30530 26-894): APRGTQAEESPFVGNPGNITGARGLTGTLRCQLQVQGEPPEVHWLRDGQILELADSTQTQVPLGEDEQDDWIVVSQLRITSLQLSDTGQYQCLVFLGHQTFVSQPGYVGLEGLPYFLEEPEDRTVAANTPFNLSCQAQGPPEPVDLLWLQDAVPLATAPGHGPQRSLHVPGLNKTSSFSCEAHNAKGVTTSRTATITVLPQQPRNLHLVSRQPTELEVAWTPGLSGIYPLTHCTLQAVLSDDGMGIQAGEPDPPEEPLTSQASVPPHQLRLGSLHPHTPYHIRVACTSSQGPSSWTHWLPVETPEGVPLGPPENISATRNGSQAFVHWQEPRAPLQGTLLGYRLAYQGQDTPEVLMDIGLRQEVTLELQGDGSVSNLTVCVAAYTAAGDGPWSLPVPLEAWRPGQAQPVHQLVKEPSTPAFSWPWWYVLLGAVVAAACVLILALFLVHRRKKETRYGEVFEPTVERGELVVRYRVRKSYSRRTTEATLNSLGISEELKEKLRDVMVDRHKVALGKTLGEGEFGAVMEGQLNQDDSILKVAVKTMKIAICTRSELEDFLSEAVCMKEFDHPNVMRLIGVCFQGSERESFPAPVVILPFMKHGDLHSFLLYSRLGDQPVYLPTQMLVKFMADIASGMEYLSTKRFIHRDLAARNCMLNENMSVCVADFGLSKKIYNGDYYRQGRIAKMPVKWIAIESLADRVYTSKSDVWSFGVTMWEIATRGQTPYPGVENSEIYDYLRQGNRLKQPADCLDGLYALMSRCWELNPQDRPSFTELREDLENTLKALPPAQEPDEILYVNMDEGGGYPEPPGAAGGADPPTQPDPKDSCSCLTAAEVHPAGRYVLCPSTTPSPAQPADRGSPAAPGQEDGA
Outline: as §1

T1 sequence (Q9Y2H9 whole entry): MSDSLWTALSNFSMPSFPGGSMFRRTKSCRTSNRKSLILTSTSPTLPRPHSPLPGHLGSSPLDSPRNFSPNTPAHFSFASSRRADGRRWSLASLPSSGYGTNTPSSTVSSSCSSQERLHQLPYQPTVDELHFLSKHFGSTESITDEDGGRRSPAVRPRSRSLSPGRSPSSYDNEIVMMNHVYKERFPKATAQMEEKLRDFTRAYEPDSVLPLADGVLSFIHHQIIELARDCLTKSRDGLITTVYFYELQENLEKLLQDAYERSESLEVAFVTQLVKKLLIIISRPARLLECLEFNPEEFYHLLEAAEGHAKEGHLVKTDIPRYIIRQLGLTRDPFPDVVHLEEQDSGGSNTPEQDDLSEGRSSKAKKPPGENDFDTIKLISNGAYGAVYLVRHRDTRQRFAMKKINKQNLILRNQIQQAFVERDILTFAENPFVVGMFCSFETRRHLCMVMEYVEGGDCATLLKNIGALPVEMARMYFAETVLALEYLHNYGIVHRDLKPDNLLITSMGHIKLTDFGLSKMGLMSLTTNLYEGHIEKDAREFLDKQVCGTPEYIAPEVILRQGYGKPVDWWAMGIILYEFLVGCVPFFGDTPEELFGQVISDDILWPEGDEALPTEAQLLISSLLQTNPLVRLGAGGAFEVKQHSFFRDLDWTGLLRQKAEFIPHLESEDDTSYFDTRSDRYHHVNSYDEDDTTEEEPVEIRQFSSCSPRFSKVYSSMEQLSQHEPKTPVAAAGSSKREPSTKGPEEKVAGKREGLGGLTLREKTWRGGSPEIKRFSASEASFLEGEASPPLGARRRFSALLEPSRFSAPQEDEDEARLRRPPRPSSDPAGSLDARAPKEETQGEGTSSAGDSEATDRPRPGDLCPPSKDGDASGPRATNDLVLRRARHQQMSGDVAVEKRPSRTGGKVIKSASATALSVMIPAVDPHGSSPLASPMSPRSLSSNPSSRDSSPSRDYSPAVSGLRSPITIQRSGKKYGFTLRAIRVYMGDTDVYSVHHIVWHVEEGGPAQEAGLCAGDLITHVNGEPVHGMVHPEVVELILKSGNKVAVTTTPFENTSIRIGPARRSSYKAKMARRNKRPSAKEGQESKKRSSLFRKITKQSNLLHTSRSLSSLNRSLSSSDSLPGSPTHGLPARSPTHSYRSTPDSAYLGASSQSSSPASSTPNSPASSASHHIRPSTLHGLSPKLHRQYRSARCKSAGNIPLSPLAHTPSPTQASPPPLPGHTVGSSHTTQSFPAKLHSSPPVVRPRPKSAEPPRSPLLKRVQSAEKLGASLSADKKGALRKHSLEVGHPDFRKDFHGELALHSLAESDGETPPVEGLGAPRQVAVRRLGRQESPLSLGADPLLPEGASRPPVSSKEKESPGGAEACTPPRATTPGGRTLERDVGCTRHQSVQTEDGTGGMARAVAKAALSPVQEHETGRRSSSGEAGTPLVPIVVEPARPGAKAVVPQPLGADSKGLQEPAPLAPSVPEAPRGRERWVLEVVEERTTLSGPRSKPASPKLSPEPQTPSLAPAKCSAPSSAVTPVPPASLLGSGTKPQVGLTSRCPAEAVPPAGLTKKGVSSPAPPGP
T4 sequence (P11362 22-822): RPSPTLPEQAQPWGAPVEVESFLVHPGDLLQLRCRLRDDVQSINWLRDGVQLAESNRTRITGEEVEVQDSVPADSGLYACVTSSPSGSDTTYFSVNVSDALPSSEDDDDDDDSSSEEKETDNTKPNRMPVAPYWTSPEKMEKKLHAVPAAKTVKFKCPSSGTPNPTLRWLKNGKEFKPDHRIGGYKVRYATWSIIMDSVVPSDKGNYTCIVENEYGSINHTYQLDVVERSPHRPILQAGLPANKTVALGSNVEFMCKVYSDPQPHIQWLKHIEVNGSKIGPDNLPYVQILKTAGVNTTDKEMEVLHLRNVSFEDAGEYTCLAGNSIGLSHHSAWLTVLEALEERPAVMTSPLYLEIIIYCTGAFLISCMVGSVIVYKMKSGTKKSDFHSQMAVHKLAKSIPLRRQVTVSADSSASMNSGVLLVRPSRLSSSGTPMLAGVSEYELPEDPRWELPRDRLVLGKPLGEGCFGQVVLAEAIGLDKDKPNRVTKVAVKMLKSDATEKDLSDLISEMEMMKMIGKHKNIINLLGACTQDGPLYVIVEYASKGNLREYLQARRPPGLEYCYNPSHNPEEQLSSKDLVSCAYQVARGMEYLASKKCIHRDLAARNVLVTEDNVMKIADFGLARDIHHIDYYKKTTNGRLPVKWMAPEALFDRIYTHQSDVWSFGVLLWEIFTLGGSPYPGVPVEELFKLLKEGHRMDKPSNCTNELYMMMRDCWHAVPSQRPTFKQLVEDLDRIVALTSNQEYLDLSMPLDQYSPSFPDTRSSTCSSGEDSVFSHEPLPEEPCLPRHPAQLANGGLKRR
T2 sequence (P49137 whole entry): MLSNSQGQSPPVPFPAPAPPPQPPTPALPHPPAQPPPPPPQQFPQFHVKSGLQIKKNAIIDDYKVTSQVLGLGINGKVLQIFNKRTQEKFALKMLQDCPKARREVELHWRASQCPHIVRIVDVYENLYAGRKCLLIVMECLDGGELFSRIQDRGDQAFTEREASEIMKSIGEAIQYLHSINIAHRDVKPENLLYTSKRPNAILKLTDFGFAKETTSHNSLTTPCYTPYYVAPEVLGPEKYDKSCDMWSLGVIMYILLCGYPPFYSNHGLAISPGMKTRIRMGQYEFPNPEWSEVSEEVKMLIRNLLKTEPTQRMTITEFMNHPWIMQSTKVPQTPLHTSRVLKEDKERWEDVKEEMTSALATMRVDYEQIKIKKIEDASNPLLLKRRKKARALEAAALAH
T3 sequence (Q5VT25 whole entry): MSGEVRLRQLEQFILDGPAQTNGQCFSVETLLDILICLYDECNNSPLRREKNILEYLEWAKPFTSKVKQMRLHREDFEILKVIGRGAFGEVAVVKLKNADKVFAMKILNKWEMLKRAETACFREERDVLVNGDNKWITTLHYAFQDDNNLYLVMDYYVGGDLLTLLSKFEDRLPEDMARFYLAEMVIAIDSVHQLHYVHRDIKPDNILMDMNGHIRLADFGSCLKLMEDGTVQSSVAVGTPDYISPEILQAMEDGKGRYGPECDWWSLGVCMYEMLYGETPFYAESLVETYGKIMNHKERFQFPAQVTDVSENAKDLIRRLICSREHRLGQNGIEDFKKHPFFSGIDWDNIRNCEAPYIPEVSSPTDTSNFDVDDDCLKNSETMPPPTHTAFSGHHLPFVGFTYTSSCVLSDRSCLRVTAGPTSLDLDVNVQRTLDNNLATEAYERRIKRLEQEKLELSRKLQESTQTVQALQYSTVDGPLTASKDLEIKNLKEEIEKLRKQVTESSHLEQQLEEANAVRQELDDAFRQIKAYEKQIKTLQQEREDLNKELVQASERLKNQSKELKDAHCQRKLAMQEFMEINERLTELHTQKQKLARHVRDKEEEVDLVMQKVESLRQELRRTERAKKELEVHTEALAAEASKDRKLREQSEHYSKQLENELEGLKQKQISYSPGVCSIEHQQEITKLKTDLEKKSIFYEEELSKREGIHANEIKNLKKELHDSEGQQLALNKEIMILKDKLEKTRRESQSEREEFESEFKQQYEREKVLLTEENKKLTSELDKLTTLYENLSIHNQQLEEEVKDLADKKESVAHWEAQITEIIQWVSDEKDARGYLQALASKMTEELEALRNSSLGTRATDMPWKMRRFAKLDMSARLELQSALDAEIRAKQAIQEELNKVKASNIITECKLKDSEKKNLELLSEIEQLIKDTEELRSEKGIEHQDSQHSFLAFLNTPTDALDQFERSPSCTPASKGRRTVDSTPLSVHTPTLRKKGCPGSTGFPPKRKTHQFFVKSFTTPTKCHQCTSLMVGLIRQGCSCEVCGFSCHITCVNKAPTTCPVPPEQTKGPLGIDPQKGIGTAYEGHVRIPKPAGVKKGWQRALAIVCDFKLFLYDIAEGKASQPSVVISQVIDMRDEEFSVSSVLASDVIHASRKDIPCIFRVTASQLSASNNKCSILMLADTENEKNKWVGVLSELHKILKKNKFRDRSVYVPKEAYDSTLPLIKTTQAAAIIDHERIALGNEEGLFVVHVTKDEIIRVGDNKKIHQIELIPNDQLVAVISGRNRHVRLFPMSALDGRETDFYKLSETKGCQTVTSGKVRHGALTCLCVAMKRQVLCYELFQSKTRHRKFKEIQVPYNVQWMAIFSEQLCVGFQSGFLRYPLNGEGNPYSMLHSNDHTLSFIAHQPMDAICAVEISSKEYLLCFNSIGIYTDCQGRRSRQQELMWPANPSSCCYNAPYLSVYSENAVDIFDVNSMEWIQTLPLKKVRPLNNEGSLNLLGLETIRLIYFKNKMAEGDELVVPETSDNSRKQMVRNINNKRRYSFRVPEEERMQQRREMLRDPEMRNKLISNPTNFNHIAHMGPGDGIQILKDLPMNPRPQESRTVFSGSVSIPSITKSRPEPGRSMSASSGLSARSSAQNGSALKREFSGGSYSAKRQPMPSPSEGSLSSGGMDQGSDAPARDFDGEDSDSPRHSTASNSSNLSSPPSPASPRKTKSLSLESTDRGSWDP

| Structure (SMILES) | remaining binding at 1 µM [1] | remaining binding at 1 µM [2] | remaining binding at 1 µM [3] | remaining binding at 1 µM [4] | remaining binding at 1 µM [5] | remaining binding at 1 µM [6] | remaining binding at 1 µM [7] | remaining binding at 1 µM [8] |
| --- | --- | --- | --- | --- | --- | --- | --- | --- |
| Cc1ccc(C(=O)Nc2ccc(CN3CCN(C)CC3)c(C(F)(F)F)c2)cc1C#Cc1cnc2c(Nc3cnn(C)c3)cccn12 [Example 1, 4-methyl-3-((8-((1-methyl-1H-pyrazol-4-yl)amino)imidazo[1,2-a]pyridin-3-yl)ethynyl)-N-(4-((4-methylpiperazin-1-yl)methyl)-3-(trifluoromethyl)phenyl)benzamide] | 81% | 100% | 96% | 0% | 1% | 82% | 97% | 2% |
| Cc1cn(-c2cc(NC(=O)c3ccc(C)c(C#Cc4cnc5c(Nc6cnn(C)c6)cccn45)c3)cc(C(F)(F)F)c2)cn1 [Example 12, 4-methyl-N-(3-(4-methyl-1H-imidazol-1-yl)-5-(trifluoromethyl)phenyl)-3-((8-((1-methyl-1H-pyrazol-4-yl)amino)imidazo[1,2-a]pyridin-3-yl)ethynyl)benzamide] | 56% | 81% | 91% | 6% | 21% | 100% | 87% | 48% |
| Cc1ccc(NC(=O)C2(C(=O)Nc3ccc(F)cc3)CC2)cc1C#Cc1cnc2c(Nc3cnn(C(C)C)c3)cccn12 [Example 78] | 82% | 98% | 100% | 100% | 63% | 79% | 89% | 93% |
